Values quoted from earlier work, collected in US20180185286A1, “POROUS MATERIALS CONTAINING COMPOUNDS INCLUDING […] ACTIVE SPECIES” (NOVARTIS PHARMA AG, priority 2014, published 2018).
Converted amounts (≈) assume the structure as drawn.

settings: in the absence of being incorporated within a porous material

SMILES | aqueous solubility
O=C(O)c1ccc(-n2nc(-c3ccccc3O)nc2-c2ccccc2O)cc1 [deferasirox] | 38 µg/mL (≈ 102 µM)
O=C1[C@H](CC[C@H](O)c2ccc(F)cc2)[C@@H](c2ccc(O)cc2)N1c1ccc(F)cc1 [ezetimibe] | essentially insoluble in aqueous solutions
CCOC(=O)C1=C(C)NC(C)=C(C(=O)OC)C1c1cccc(Cl)c1Cl (centres unmarked) [felodipine] | 19 µg/mL (≈ 49.4 µM)
CC(C)Cc1ccc(C(C)C(=O)O)cc1 (centres unmarked) [ibuprofen] | 38 µg/mL (≈ 184 µM)
COc1ccc2c(c1)c(CC(=O)O)c(C)n2C(=O)c1ccc(Cl)cc1 [indomethacin] | 2.5 µg/mL (≈ 6.99 µM)
